Results reported in patent publication US9821062B2, “Cyanine dye compound and preparation method therefor, and dual-function agent for photodynamic therapy and preparation method therefor” (ZHEJIANG HISUN PHARMACEUTICAL CO., LTD., priority 2012, dated 2017).

Assay: Ultraviolet spectroscopy detection: long-wavelength absorption peak, fluorescence, Stokes shift
Assay type: physicochemical
Text: Electronic absorption spectra for the compounds are shown in FIG. 1, from which it can be seen that, all the compounds having a structure shown in formula VIII, formula IX, formula III, formula IV, formula V, and formula XVII provided according to the present invention show a strong long-wavelength absorption peak between 750 nm and 860 nm, and have an obvious Stokes shift between 37 nm and 41 nm.

## CC1(C)C(/C=C/C2=C(Sc3ccc(C(=O)O)cc3)C(=C/C=C3/N(CCCCS(=O)(=O)O)c4ccc5ccccc5c4C3(C)C)/CCC2)=[N+](CCCCS(=O)(=O)O)c2ccc3ccccc3c21 [Formula IX]
  Fluorescence: 876 nm
  Stokes shift: 39 nm
long-wavelength absorption peak
  Absorption peak: 837 nm
